According to US9101567B2, “Suppression of cancer growth and metastasis using nordihydroguaiaretic acid derivatives with 7-hydroxystaurosporine” (The Johns Hopkins University, priority 2010, dated 2015):

How the values were obtained:
BNIP3 = experiment: Western blotting of BNIP3 in LNCaP cells, normoxic or hypoxic; assay type: cell-based, human; conditions: normoxic or hypoxic condition, M4N 80 μM
Source text: (§1) LNCaP human prostate cancer, DU145 human prostate cancer, PC3 human prostate cancer, MCF-7 human breast cancer, MDA-MB-231 human breast cancer, MDA-MB-468 human breast cancer, HT29 human colon cancer, K562 human myelogenous leukaemia, HepG2 human hepatoma, Hep3B human hepatoma, and LN229 human glioblastoma cancer cell lines were purchased from American Type Culture Collection (Manassas, Va.). OC24 human ascites ovarian cancer cell line was a generous gift from Dr. XXX (Johns Hopkins University, MD). LNCaP cell line was cultured in RPMI1640 medium supplemented with glucose (14 mM), pyruvate (1 mM), and fetal bovine serum (FBS) (10%). DU145 cell line was cultured in MEM supplemented with non-essential amino acids, glucose (21 mM), pyruvate (1 mM), and FBS (10%). PC3 cell line was cultured in F-12K medium supplemented with FBS (10%). MCF-7 cell line was cultured in DMEM supplemented with FBS (10%). OC24 cell line was cultured in RPMI1640 medium supplemented with FBS (10%) as suspension culture. MDA-MB-231 and 468 cell lines were cultured in Leibovitz's L15 medium supplemented with FBS (10%) under air. HT29 cell line was cultured in DMEM supplemented with glucose (25 mM) and FBS (10%). K562 cell line was cultured in RPMI1640 supplemented with FBS (10%). […] The signals were detected by western blot chemiluminescence reagent plus (New England Nuclear Life Science Products, Boston, Mass.). […]

HIF1α = experiment: Western blotting of HIF1α in LNCaP cells under hypoxia; assay type: cell-based, human; conditions: M4N 80 μM
Source text: as §1

BNIP3 mRNA = experiment: Northern blotting of BNIP3 mRNA in LNCaP cells; assay type: cell-based, human; conditions: 6 hr exposure to hypoxic condition, M4N 80 μM
Protocol: RNA was extracted from the cells by a Trizol Reagent (Invitrogen, Carlsbad, Calif.). Twentyfive μg of RNA per lane was dissolved on the 1.5% agarose gel containing 20 mM NaPO4 (pH 6.8) and 6% formaldehyde. RNA was transferred to a Nytran SPC membrane (Sigma-Aldrich, St. Louis, Mo.). The probe for BNIP3 was derived from a 199 bp fragment DNA generated by RT-PCR using a SuperScript III First-Strand Synthesis System for RT-PCR (Invitrogen, Carlsbad, Calif.), 5′-primer ‘[…]’ and 3′-primer ‘[…]’. The PCR fragment was cloned into a topo vector (Invitrogen, Carlsbad, Calif.). After midi-prep, the DNA fragment was excised from the vector and dissolved on the 2% agarose gel and purified. The extracted DNA fragment was labeled by ^32P-αdATP, Klenow fragment, and random hexagonal primers. After unincorporated ^32P-αdATP was removed by a Sephadex G-50 spun column, the labeled DNA fragment was used as a probe. After hybridization, the membrane was washed and autoradiographed to a BioMax MR film (Kodak, Rochester, N.Y.).
BNIP3 is a member of Bcl-2 family proteins which sends pro-apoptotic signal to mitochondria and induces mitochondrial membrane potential depolarization. […] This implies that BNIP3 is involved in autophagy as well as cell death. […]

[1] = human patients (reference 10); cited from earlier work
LC3B-II = experiment: Western blotting of LC3B-II (autophagy) in MCF-7 cells; assay type: cell-based, human; conditions: MCF-7, 15 hrs; M4N 80 μM
Protocol: The sample volumes were adjusted by the total protein amount. Protein assay was performed by Bio-Rad Protein Assay (Bio-Rad Laboratories, Inc. Hercules, Calif.). The samples were resolved by the standard SDS-polyacrylamide gel electrophoresis and transferred to nitrocellulose membrane (Amersham Biosciences, Bjorkgatan, Sweden). The membranes were blocked with skim milk, and incubated with primary antibodies at 4° C. overnight and then with secondary antibody conjugated with horse radish peroxidase at room temperature for 2 hrs. The signals were detected by western blot chemiluminescence reagent plus (New England Nuclear Life Science Products, Boston, Mass.). The effect of […] on autophagy was examined using the western blotting for LC3B-II in the presence of Baflomycin A1 in MCF-7 and HepG2 cells (FIG. 4D).

COc1ccc(C[C@@H](C)[C@@H](C)Cc2ccc(OC)c(OC)c2)cc1OC [M4N, Tetra-O-methyl nordihyroguaiaretic acid]
BNIP3 protein expression (BNIP3): blocks BNIP3 protein expression | HIF1α expression (HIF1α; 6 hr exposure to hypoxia): did not have much effect | HIF1α expression (HIF1α; 18 hr exposure to hypoxia): reduced HIF1α expression | BNIP3 mRNA expression (BNIP3 mRNA): suppressed the increase of BNIP3 mRNA expression | toxicity in clinical trials [1]: fairly nontoxic | autophagy (LC3B-II in the presence of Baflomycin A1) (LC3B-II): blocks autophagy
